Data as given in ChEMBL document CHEMBL1125091, “Antiulcer agents. 4-substituted 2-guanidinothiazoles: reversible, competitive, and selective inhibitors of gastric H+,K(+)-ATPase” (J Med Chem, 1990).
Where “and” joins values, the source holds several entries; their conditions need not be identical. Identical values can stand only once.

Target: Potassium-transporting ATPase (Canis familiaris)
Assay: Inhibitory activity against dog gastric proton-pump enzyme H+/K+ ATPase
Details: not given

Row | IC50 | Structure (SMILES)
1 | 8.8 µM | Cc1[nH]ccc1-c1nc(NC(=N)NCc2ccccc2)sc1C
2 | 23 µM | N=C(N)Nc1nc(-c2cccc(O)c2)cs1
3 | 1.1 µM | Cc1[nH]c2ccc(Cl)cc2c1-c1nc(NC(=N)NCc2ccccc2)sc1C
4 | 16 µM | N=C(NCc1ccccc1)Nc1nc(-c2cc3ccccc3[nH]2)cs1
5 | 1.7 µM | Cc1[nH]c2ccccc2c1-c1csc(NC(=N)NCc2ccccc2)n1
6 | 7 µM | Cc1cc(-c2csc(NC(=N)NCc3ccc(Cl)cc3)n2)c[nH]1
7 | 4 µM | N=C(N)Nc1nc(-c2cc3cc(F)ccc3[nH]2)cs1
8 | 1.8 µM | N=C(NCc1ccccc1)Nc1nc(-c2c[nH]c3ccc(OCc4ccccc4)cc23)cs1
9 | 33 µM | N=C(N)Nc1nc(-c2ccc(F)cc2)cs1
10 | 2.3 µM | COc1ccccc1-c1csc(NC(=N)NCc2ccccc2)n1
11 | 9.8 µM | Cc1cc(-c2nc(NC(=N)Nc3ccccc3)sc2C)c[nH]1
12 | 6 µM | N=C(NCc1ccccc1)Nc1nc(-c2ccccc2Cl)cs1
13 | 1.6 µM | Cc1ccc2c(-c3csc(NC(=N)NCc4ccccc4)n3)c[nH]c2c1
14 | 3.3 µM | Cc1cccc2[nH]cc(-c3csc(N=C(N)NCc4ccccc4)n3)c12
15 | 26 µM | Cc1ccc(-c2csc(NC(=N)NCc3ccccc3)n2)n1S(=O)(=O)c1ccccc1
16 | 1.5 µM | N=C(NCc1ccccc1)Nc1nc(-c2c[nH]c3ccccc23)cs1
17 | 0.7 µM | N=C(NCc1ccccc1)Nc1nc(-c2c[nH]c3ccc(Cl)cc23)cs1
18 | 7.9 µM | Cc1cc(-c2nc(NC(=N)NCc3ccccc3)sc2C)c[nH]1
19 | 9.1 µM | N=C(NCc1ccccc1)Nc1nc(-c2cc3cc(Cl)ccc3[nH]2)cs1
20 | 3.1 µM | COC(=O)c1ccc2[nH]cc(-c3csc(NC(=N)NCc4ccccc4)n3)c2c1
21 | 1.3 µM | Cc1sc(NC(=N)NCc2ccccc2)nc1-c1ccc(O)c(O)c1
22 | 18 µM and 9 µM | N=C(N)Nc1nc(-c2ccccc2Cl)cs1
23 | 0.94 µM | Cc1ccc2[nH]cc(-c3csc(NC(=N)NCc4ccccc4)n3)c2c1

Second part, the compound before the results:

Row | Structure (SMILES) | IC50
24 | Cc1ccc(-c2csc(N=C(N)N)n2)n1S(=O)(=O)c1ccccc1 | 7 µM
25 | Cc1[nH]c(-c2csc(N=C(N)N)n2)cc1CN(C)C | 11 µM
26 | N=C(N)Nc1nc(-c2ccc(N)cc2)cs1 | 32 µM
27 | N=C(N)Nc1nc(-c2cccc(Cl)c2)cs1 | 53 µM
28 | Cc1sc(N=C(N)N)nc1-c1c[nH]c(C=O)c1 | 28 µM
29 | Cc1cc(-c2csc(N=C(N)N)n2)cn1S(=O)(=O)c1ccccc1 | 2 µM
30 | Cc1sc(N=C(N)N)nc1-c1c[nH]c2ccccc12 | 7.6 µM
31 | Cc1cc(-c2csc(N=C(N)N)n2)cn1C | 24 µM
32 | COC(=O)c1ccc2[nH]cc(-c3csc(N=C(N)N)n3)c2c1 | 6.7 µM
33 | CN(C)Cc1cc(-c2csc(N=C(N)N)n2)c[nH]1 | 9 µM
34 | Cc1sc(N=C(N)N)nc1-c1c[nH]c2ccc(Cl)cc12 | 0.59 µM
35 | Cc1sc(N=C(N)N)nc1-c1ccc(O)c(O)c1 | 1.6 µM
36 | Cc1ccccc1-c1csc(N=C(N)N)n1 | 20 µM
37 | CCCCCC/N=C(\N)Nc1nc(-c2c[nH]c(C)c2)cs1 | 7 µM
38 | N=C(N)Nc1nc(-c2c[nH]c3ccc(F)cc23)cs1 | 7.4 µM
39 | Cc1sc(N=C(N)N)nc1-c1ccn(S(=O)(=O)c2ccccc2)c1C | 4.2 µM
40 | COc1cccc(-c2csc(N=C(N)N)n2)c1 | 60 µM
41 | COc1ccccc1-c1csc(N=C(N)N)n1 | 27 µM
42 | CCOC(=O)c1cc(-c2csc(N=C(N)N)n2)[nH]c1C | 7 µM

Tested on: Potassium-transporting ATPase (Canis familiaris)
Assay: Percent inhibition of gastric proton-pump enzyme H+/K+ ATPase was determined at 50 uM
Details: Canis lupus familiaris, Stomach

Row | inhibition [%] | Structure (SMILES)
43 | 80 | Cc1[nH]ccc1-c1nc(NC(=N)NCc2ccccc2)sc1C
44 | 69 | N=C(N)Nc1nc(-c2cccc(O)c2)cs1
45 | 100 | Cc1[nH]c2ccc(Cl)cc2c1-c1nc(NC(=N)NCc2ccccc2)sc1C
46 | 61 | N=C(NCc1ccccc1)Nc1nc(-c2cc3ccccc3[nH]2)cs1
47 | 102 | Cc1[nH]c2ccccc2c1-c1csc(NC(=N)NCc2ccccc2)n1
48 | 95 | Cc1cc(-c2csc(NC(=N)NCc3ccc(Cl)cc3)n2)c[nH]1
49 | 87 | N=C(N)Nc1nc(-c2cc3cc(F)ccc3[nH]2)cs1
50 | 90 | N=C(NCc1ccccc1)Nc1nc(-c2c[nH]c3ccc(OCc4ccccc4)cc23)cs1
51 | 61 | N=C(N)Nc1nc(-c2ccc(F)cc2)cs1
52 | 99 | COc1ccccc1-c1csc(NC(=N)NCc2ccccc2)n1
53 | 83 | Cc1cc(-c2nc(NC(=N)Nc3ccccc3)sc2C)c[nH]1
54 | 99 | N=C(NCc1ccccc1)Nc1nc(-c2ccccc2Cl)cs1
55 | 98 | Cc1ccc2c(-c3csc(NC(=N)NCc4ccccc4)n3)c[nH]c2c1
56 | 57 | Cc1ccc(-c2csc(NC(=N)NCc3ccccc3)n2)n1S(=O)(=O)c1ccccc1
57 | 102 | N=C(NCc1ccccc1)Nc1nc(-c2c[nH]c3ccccc23)cs1
58 | 92 | N=C(NCc1ccccc1)Nc1nc(-c2c[nH]c3ccc(Cl)cc23)cs1
59 | 83 | Cc1cc(-c2nc(NC(=N)NCc3ccccc3)sc2C)c[nH]1
60 | 97 | N=C(NCc1ccccc1)Nc1nc(-c2cc3cc(Cl)ccc3[nH]2)cs1
61 | 94 | COC(=O)c1ccc2[nH]cc(-c3csc(NC(=N)NCc4ccccc4)n3)c2c1
62 | 103 | Cc1sc(NC(=N)NCc2ccccc2)nc1-c1ccc(O)c(O)c1
63 | 71 | N=C(N)Nc1nc(-c2ccccc2Cl)cs1
64 | 104 | Cc1ccc2[nH]cc(-c3csc(NC(=N)NCc4ccccc4)n3)c2c1

Further lines, the compound ahead of its results:

Row | Structure (SMILES) | inhibition [%]
65 | Cc1ccc(-c2csc(N=C(N)N)n2)n1S(=O)(=O)c1ccccc1 | 91
66 | Cc1[nH]c(-c2csc(N=C(N)N)n2)cc1CN(C)C | 87
67 | N=C(N)Nc1nc(-c2ccc(N)cc2)cs1 | 63
68 | N=C(N)Nc1nc(-c2cccc(Cl)c2)cs1 | 48
69 | Cc1sc(N=C(N)N)nc1-c1c[nH]c(C=O)c1 | 77
70 | Cc1cc(-c2csc(N=C(N)N)n2)cn1S(=O)(=O)c1ccccc1 | 92
71 | Cc1sc(N=C(N)N)nc1-c1c[nH]c2ccccc12 | 92
72 | Cc1cc(-c2csc(N=C(N)N)n2)cn1C | 74
73 | COC(=O)c1ccc2[nH]cc(-c3csc(N=C(N)N)n3)c2c1 | 86
74 | CN(C)Cc1cc(-c2csc(N=C(N)N)n2)c[nH]1 | 94
75 | Cc1sc(N=C(N)N)nc1-c1c[nH]c2ccc(Cl)cc12 | 99
76 | Cc1sc(N=C(N)N)nc1-c1ccc(O)c(O)c1 | 97
77 | Cc1ccccc1-c1csc(N=C(N)N)n1 | 78
78 | CCCCCC/N=C(\N)Nc1nc(-c2c[nH]c(C)c2)cs1 | 93
79 | N=C(N)Nc1nc(-c2c[nH]c3ccc(F)cc23)cs1 | 90
80 | Cc1sc(N=C(N)N)nc1-c1ccn(S(=O)(=O)c2ccccc2)c1C | 100
81 | COc1cccc(-c2csc(N=C(N)N)n2)c1 | 48
82 | COc1ccccc1-c1csc(N=C(N)N)n1 | 70
83 | CCOC(=O)c1cc(-c2csc(N=C(N)N)n2)[nH]c1C | 91

Target: Potassium-transporting ATPase (Canis familiaris)
Assay: Inhibitory activity of gastric proton-pump enzyme H+/K+ ATPase was determined at 50 uM
Details: not given

Row | IC50 [µM] | Structure (SMILES)
84 | 21 | N=C(N)Nc1nc2c(s1)CCc1ccccc1-2
